For assay [1], the target named is Tsr (thiostrepton resistance methyltransferase) (Streptomyces azureus, UniProt P18644, R135A). The assay is described as follows: biochemical. The assay is classed as binding.
In assay [2] the target is Tsr (thiostrepton resistance methyltransferase) (Streptomyces azureus, UniProt P18644, R165A). The assay is described as follows: biochemical. The assay is classed as binding.
The target of assay [3] is Tsr (thiostrepton resistance methyltransferase) (Streptomyces azureus, UniProt P18644, N129A). The assay is described as follows: biochemical. The assay is classed as binding.
In assay [4] the target is Tsr (thiostrepton resistance methyltransferase) (Streptomyces azureus, UniProt P18644). The assay is described as follows: isothermal titration calorimetry, single-set-of-sites fit. The format is binding. In general terms: ITC needs no label: the signal is the heat of the interaction.
Assay [5] deals with Tsr (thiostrepton resistance methyltransferase) (Streptomyces azureus, UniProt P18644, R165K). In words: biochemical.
Assay [6] has as its target Tsr (thiostrepton resistance methyltransferase) (Streptomyces azureus, UniProt P18644, R135K). In words: biochemical.
The target of assay [7] is Tsr (thiostrepton resistance methyltransferase) (Streptomyces azureus, UniProt P18644, N129D). The assay is described as follows: biochemical.

The results in this text go back to publication PMC4661090 (FEBS letters, 2015).

Broadly, the Kd is the concentration at which binding is half-saturated. A high value points to lower affinity.

Regarding `Nc1ncnc2c1ncn2[C@@H]1O[C@H](CSCC[C@H](N)C(=O)O)[C@@H](O)[C@H]1O` [SAH, S-adenosyl-L-homocysteine], the Kd in assay [1] came out at 11 µM; in assay [2], 20.5 µM; in assay [3] it was 16.4 µM; in assay [4] it was 24.4 µM.

For the compound `C[S+](CC[C@H](N)C(=O)O)C[C@H]1O[C@@H](n2cnc3c(N)ncnc32)[C@H](O)[C@@H]1O` (stereo partly drawn) [SAM, S-adenosyl-L-methionine], the dissociation constant Kd in assay [5] worked out at 97.1 µM; in assay [1], 614 µM; in assay [2], 189 µM; in assay [3], 493 µM; in assay [6], 142 µM; in assay [7], 411 µM. In addition, the affinity in assay [4], expressed as Kd, was 107 µM.
